Paper PMC9085577, “Discovery of a Potent and Orally Active Dual GPBAR1/CysLT1R Modulator for the Treatment of Metabolic Fatty Liver Disease” (Frontiers in Pharmacology, 2022)

Test system: liver transcriptome
Assay: AmpliSeq liver transcriptome of HFD-F mice
Assay type: in vivo
Excerpt: C57BL/6J male mice were fed a high fat diet (HFD) containing 59 KJ% fat plus 1% cholesterol, w/o sugar (ssniff ® EF R/M acc. D12330 mod. 22,7 ME/kg) and fructose (HFD-F) in drinking water (42 g/L), or normal chow diet for 61 days. Food intake was estimated as the difference of weight between the offered and the remnant amount of food at 3-days intervals. The food was provided as pressed pellets and the residual spillage was not considered. After 7 days, HFD-F mice were randomized to receive HFD-F alone or in combination with compound 2 (30 mg/kg/day) by gavage until the end of the experiment. Doses of each agent were chosen according to previously published data. Mice were housed under controlled temperature (22°C) and photoperiods (12:12-h light/dark cycle), allowed unrestricted access to standard mouse chow and tap water. The experimental protocol was approved by the Animal Care and Use Committee of the University of Perugia and by the Italian Minister of Health and Istituto Superiore di Sanità (Italy) and was in agreement with the European guidelines for use of experimental animals (permission n. 583/2017-PR). The general health of the animals was monitored daily by the Veterinarian in the animal facility. At the day of sacrifice, fed mice were deeply anesthetized with a mixture of tiletamine hypochloride and zolazepam hypochloride/xylazine at a dose of 50/5 mg/kg and sacrificed before 12 a.m.
High-quality RNA was extracted from mice livers, using the Direct-zol™ RNA MiniPrep w/Zymo-Spin™ IIC Columns (Zymo Research, Irvine, CA) according to the manufacturer’s instructions. RNA quality and quantity were assessed with the Qubit® RNA HS Assay Kit and a Qubit 3.0 fluorometer (Invitrogen, Carlsbad, CA) followed by agarose gel electrophoresis. Libraries were generated using the Ion AmpliSeq™ Transcriptome Mouse Gene Expression Core Panel and Chef-Ready Kit (Comprehensive evaluation of AmpliSeq transcriptome, a whole transcriptome RNA sequencing methodology) (Thermo Fisher Scientific, Waltham, MA). Briefly, 10 ng of RNA was reverse transcribed with SuperScript™ Vilo™ cDNA Synthesis Kit (Thermo Fisher Scientific, Waltham, MA) before library preparation on the Ion Chef™ instrument (Thermo Fisher Scientific, Waltham, MA). The resulting cDNA was amplified to prepare barcoded libraries using the Ion Code™ PCR Plate, and the Ion AmpliSeq™ Transcriptome Mouse Gene Expression Core Panel (Thermo Fisher Scientific, Waltham, MA), Chef-Ready Kit, according to the manufacturer’s instructions. Barcoded libraries were combined to a final concentration of 100 p.m., and used to prepare Template-Positive Ion Sphere™ (Thermo Fisher Scientific, Waltham, MA) Particles to load on Ion 540™ Chips, using the Ion 540™ Kit-Chef (Thermo Fisher Scientific, Waltham, MA). Sequencing was performed on an Ion S5™ Sequencer with Torrent Suite™ Software v6 (Thermo Fisher Scientific, Waltham, MA). The analyses were performed with a range of fold <−2 and >+2 and a p value <0.05, using Transcriptome Analysis Console Software (version 4.0.1), certified for AmpliSeq analysis (Thermo-Fisher). The transcriptomic data have been deposited as dataset on Mendeley data repository (reference number linking to the repository: Fiorucci, Stefano; Biagioli, Michele; Marchianò, Silvia; Di Giorgio, Cristina (2021), “Discovery of potent dual GPBAR1/CysLT1R modulator for the treatment of metabolic fatty liver disease,” Mendeley Data, V1, doi: 10.17632/6dnrk9fc72.1).

[1] = HFD-F mice, 30 mg/kg/day by gavage
[2] = in comparison to untreated mice

O=C(O)c1cccc(-c2ccc(OCc3ccc4ccccc4n3)cc2)c1 [Compound 2, 4'-(quinolin-2-ylmethoxy)-[1,1′-biphenyl]-3-carboxylic acid]
liver expression of Alox5 [1]: downregulated | liver expression of Col1α1 [1]: reversed | liver expression of Elov5, Mogat1, fabp2, Cd36, Me1, and Cidea [1]: reduced significantly | liver expression of FXR and its target genes Shp and Bsep [1]: no effect | liver expression of Fasn [1]: reduced significantly | liver expression of Fgf21 [1]: decreased | liver expression of Srepb1f [1]: no effect | liver expression of αSma [1]: reversed | liver expression of Cyp7a1 (HFD-F mice, 30 mg/kg/day by gavage, 30 mg/kg/day): potently increased | number of liver genes modulated compared to HFD-F alone (fold change <−2 or >2, p value < 0.05): 154 | liver expression of Pparα [2]: increased | liver expression of Pparγ [2]: increased | 1810011O10Rik transcript Avg (log2) (liver, HFD + compound 2): 5.22 log2 | 2310001K24Rik transcript Avg (log2) (liver, HFD + compound 2): 2.22 log2 | 2310039H08Rik transcript Avg (log2) (liver, HFD + compound 2): 3.92 log2 | 4833423E24Rik transcript Avg (log2) (liver, HFD + compound 2): 1.1 log2 | 6430573F11Rik transcript Avg (log2) (liver, HFD + compound 2): 1.17 log2 | AW549542 transcript Avg (log2) (liver, HFD + compound 2): 6.06 log2 | Abcb1a transcript Avg (log2) (liver, HFD + compound 2): 2.24 log2 | Acod1 transcript Avg (log2) (liver, HFD + compound 2): 0.24 log2 | Acot3 transcript Avg (log2) (liver, HFD + compound 2): 1.85 log2 | Adam8 transcript Avg (log2) (liver, HFD + compound 2): 0.63 log2 | Adam11 transcript Avg (log2) (liver, HFD + compound 2): 7.79 log2 | Anxa2 transcript Avg (log2) (liver, HFD + compound 2): 4.37 log2 | Apcs transcript Avg (log2) (liver, HFD + compound 2): 6.13 log2 | Arntl transcript Avg (log2) (liver, HFD + compound 2): 1.77 log2 | Arsg transcript Avg (log2) (liver, HFD + compound 2): 4.36 log2 | Atp1a3 transcript Avg (log2) (liver, HFD + compound 2): 0.63 log2 | Aurka transcript Avg (log2) (liver, HFD + compound 2): 0.66 log2 | Avpr1a transcript Avg (log2) (liver, HFD + compound 2): 3.76 log2 | Bcat1 transcript Avg (log2) (liver, HFD + compound 2): 0 log2 | C920009B18Rik transcript Avg (log2) (liver, HFD + compound 2): 0.43 log2 | Cabyr transcript Avg (log2) (liver, HFD + compound 2): 3.88 log2 | Capn11 transcript Avg (log2) (liver, HFD + compound 2): 2.07 log2 | Ccl2 transcript Avg (log2) (liver, HFD + compound 2): 2.2 log2 | Ccl3 transcript Avg (log2) (liver, HFD + compound 2): 1.68 log2 | Ccl4 transcript Avg (log2) (liver, HFD + compound 2): 0.13 log2 | Ccl7 transcript Avg (log2) (liver, HFD + compound 2): 0.8 log2 | Ccl9 transcript Avg (log2) (liver, HFD + compound 2): 5.17 log2 | Cd9 transcript Avg (log2) (liver, HFD + compound 2): 5.07 log2 | Cd14 transcript Avg (log2) (liver, HFD + compound 2): 2.99 log2 | Cd36 transcript Avg (log2) (liver, HFD + compound 2): 4.05 log2 | Cd63 transcript Avg (log2) (liver, HFD + compound 2): 2.97 log2 | Cdk1 transcript Avg (log2) (liver, HFD + compound 2): 1.66 log2 | Cdkl2 transcript Avg (log2) (liver, HFD + compound 2): 1.24 log2 | Cdkn1a transcript Avg (log2) (liver, HFD + compound 2): 1.4 log2 | Cdkn3 transcript Avg (log2) (liver, HFD + compound 2): 0.2 log2 | Ces2b transcript Avg (log2) (liver, HFD + compound 2): 4.12 log2 | Cetn4 transcript Avg (log2) (liver, HFD + compound 2): 1.14 log2 | Chka transcript Avg (log2) (liver, HFD + compound 2): 4.93 log2 | Chrna4 transcript Avg (log2) (liver, HFD + compound 2): 2.32 log2 | Cidea transcript Avg (log2) (liver, HFD + compound 2): 0.78 log2 | Cidec transcript Avg (log2) (liver, HFD + compound 2): 5.15 log2 | Cirbp transcript Avg (log2) (liver, HFD + compound 2): 6.69 log2 | Ckap2 transcript Avg (log2) (liver, HFD + compound 2): 0.6 log2 | Clec4e transcript Avg (log2) (liver, HFD + compound 2): 0.33 log2 | Clec4d transcript Avg (log2) (liver, HFD + compound 2): 0.27 log2 | Col27a1 transcript Avg (log2) (liver, HFD + compound 2): 6.19 log2 | Csf3 transcript Avg (log2) (liver, HFD + compound 2): 0.06 log2 | Cxcl2 transcript Avg (log2) (liver, HFD + compound 2): 1 log2 | Cyp1a2 transcript Avg (log2) (liver, HFD + compound 2): 11.93 log2 | Cyp2a5 transcript Avg (log2) (liver, HFD + compound 2): 10.52 log2 | Cyp7a1 transcript Avg (log2) (liver, HFD + compound 2): 9.39 log2 | Cyp17a1 transcript Avg (log2) (liver, HFD + compound 2): 4.11 log2 | D17H6S56E-5 transcript Avg (log2) (liver, HFD + compound 2): 1.96 log2 | Dbp transcript Avg (log2) (liver, HFD + compound 2): 7.05 log2 | Defb1 transcript Avg (log2) (liver, HFD + compound 2): 1.19 log2 | Derl2 transcript Avg (log2) (liver, HFD + compound 2): 4.75 log2 | Dhrs9 transcript Avg (log2) (liver, HFD + compound 2): 1.65 log2 | Dtx4 transcript Avg (log2) (liver, HFD + compound 2): 2.62 log2 | Dusp8 transcript Avg (log2) (liver, HFD + compound 2): 1.5 log2 | Egr1 transcript Avg (log2) (liver, HFD + compound 2): 3.52 log2 | Ell transcript Avg (log2) (liver, HFD + compound 2): 5.75 log2 | Elovl3 transcript Avg (log2) (liver, HFD + compound 2): 8.94 log2 | Elovl5 transcript Avg (log2) (liver, HFD + compound 2): 9.72 log2 | Ephb2 transcript Avg (log2) (liver, HFD + compound 2): 0.78 log2 | Epm2aip1 transcript Avg (log2) (liver, HFD + compound 2): 2.63 log2 | Fam57a transcript Avg (log2) (liver, HFD + compound 2): 2.02 log2 | Fgf21 transcript Avg (log2) (liver, HFD + compound 2): 2.1 log2 | Fxyd2 transcript Avg (log2) (liver, HFD + compound 2): 0.72 log2
